In patent publication US4147861A, “1N-(α-Hydroxy-ω-aminoalkanoyl)- 6'N-methyl-3',4'-dideoxykanamycin B and the production thereof” (Zaidan Hojin Biseibutsu Kagaku Kenkyu Kai, priority 1977, dated 1979):
Converted amounts (≈) assume the structure as drawn. Read-outs that look alike come from different tables or passages of the source.

Assays:
Staphylococcus aureus = assay: Minimum inhibitory concentration, serial dilution method on nutrient agar; assay type: cell-based; conditions: 37° C., 18 hours, read-out: Minimum Inhibitory Concentrations
[1] = tested on: Staphylococcus aureus FDA 209P; assay: as above; assay type: cell-based; conditions: FDA209P, 37° C., 18 hours, read-out: Minimum Inhibitory Concentrations
[2] = tested on: Staphylococcus aureus Terajima; assay: as above; assay type: cell-based; conditions: 37° C., 18 hours, read-out: Minimum Inhibitory Concentrations
Sarcina lutea PCI 1001 = assay: as above; assay type: cell-based; conditions: Micrococcus luteus, PCI1001, 18 h, read-out: Minimum Inhibitory Concentrations
Bacillus anthracis = assay: microbe, parasite or virus in culture; assay type: cell-based; conditions: 18 h, read-out: Minimum Inhibitory Concentrations
[3] = tested on: Bacillus subtilis PCI 219; assay: Minimum inhibitory concentration, serial dilution method on nutrient agar; assay type: cell-based; conditions: PCI219, 37° C., 18 hours, read-out: Minimum Inhibitory Concentrations
[4] = tested on: Bacillus subtilis NRRL B-558; assay: as above; assay type: cell-based; conditions: NRRLB558, 37° C., 18 hours, read-out: Minimum Inhibitory Concentrations
[5] = tested on: Bacillus cereus ATCC 10702; assay: as above; assay type: cell-based; conditions: Bacillus cereus, ATCC10702, 18 h, read-out: Minimum Inhibitory Concentrations
[6] = tested on: Corynebacterium bovis 1810; assay: as above; assay type: cell-based; conditions: Corynebacterium bovis, 1810, 18 h, read-out: Minimum Inhibitory Concentrations
[7] = tested on: Mycobacterium smegmatis ATCC 607; assay: as above; assay type: cell-based; conditions: Mycolicibacterium smegmatis, ATCC607, 37° C., 18 hours, read-out: Minimum Inhibitory Concentrations
[8] = tested on: Shigella dysenteriae JS 11910; assay: as above; assay type: cell-based; conditions: JS11910, 18 h, read-out: Minimum Inhibitory Concentrations
Salmonella typhosa T-63 = assay: as above; assay type: cell-based; conditions: Salmonella enterica, 18 h, read-out: Minimum Inhibitory Concentrations
[9] = tested on: Salmonella enteritidis 1891; assay: as above; assay type: cell-based; conditions: Salmonella enterica, read-out: Minimum Inhibitory Concentrations
Proteus vulgaris OX 19 = assay: as above; assay type: cell-based; conditions: read-out: Minimum Inhibitory Concentrations
[10] = tested on: Klebsiella pneumoniae PCT 602; assay: as above; assay type: cell-based; conditions: read-out: Minimum Inhibitory Concentrations
Escherichia coli NIHJ = assay: as above; assay type: cell-based; conditions: read-out: Minimum Inhibitory Concentrations
Escherichia coli K-12 = assay: as above; assay type: cell-based; conditions: read-out: Minimum Inhibitory Concentrations
Escherichia coli K-12 R5 = assay: as above; assay type: cell-based; conditions: K12R5, 18 h, read-out: Minimum Inhibitory Concentrations
[11] = tested on: Escherichia coli K-12 ML 1629; assay: as above; assay type: cell-based; conditions: read-out: Minimum Inhibitory Concentrations
[12] = tested on: Escherichia coli K-12 ML 1410; assay: as above; assay type: cell-based; conditions: read-out: Minimum Inhibitory Concentrations
[13] = tested on: Escherichia coli K-12 ML 1410 R81; assay: as above; assay type: cell-based; conditions: 18 h, read-out: Minimum Inhibitory Concentrations
[14] = tested on: Escherichia coli LA290 R55; assay: as above; assay type: cell-based; conditions: LA290R55, 18 h, read-out: Minimum Inhibitory Concentrations
[15] = tested on: Escherichia coli LA290 R56; assay: as above; assay type: cell-based; conditions: LA290R56, 18 h, read-out: Minimum Inhibitory Concentrations
[16] = tested on: Escherichia coli LA290 R64; assay: as above; assay type: cell-based; conditions: LA290R64, 18 h, read-out: Minimum Inhibitory Concentrations
Escherichia coli W677 = assay: as above; assay type: cell-based; conditions: read-out: Minimum Inhibitory Concentrations
[17] = tested on: Escherichia coli JR66/W677; assay: as above; assay type: cell-based; conditions: Escherichia coli, JR66/W677, 18 h, read-out: Minimum Inhibitory Concentrations
[18] = tested on: Escherichia coli K-12 ML 1630; assay: as above; assay type: cell-based; conditions: K12ML1630, 37° C., 18 hours, read-out: Minimum Inhibitory Concentrations
Procedure: (§1) The minimum inhibitory concentrations (mcg./ml.) of 1N-(DL-isoseryl)-6'N-methyl-3',4'-dideoxykanamycin B (abbreviated as DL-IS-MDKB); 1N-(L-isoseryl)-6'N-methyl-3',4'-dideoxykanamycin B (abbreviated as L-IS-MDKB); 1N-(L-4-amino-[…])-6'N-methyl-3',4'-dideoxykanamycin B (abbreviated as AHB-MDKB); and 1N-(L-5-amino-2-hydroxyvaleryl)-6'N-methyl-3',4'-dideoxykanamycin B (abbreviated as AHV-MDBK) against various organisms were determined according to serial dilution method using nutrient agar medium at 37° C., the readings being made after 18 hours incubation. For the comparison purpose, the minimum inhibitory concentrations (mcg./ml.) of 1 N-(L-4-amino-2-hydroxybutyryl)-kanamycin A (abbreviated as AHB-KMA) and 1N-([…])-kanamycin B (abbreviated as AHB-KMB) which are known from U.S. Pat. No. 3,781,268 were also determined by the same manner as stated above.

[19] = tested on: Klebsiella pneumoniae 22 No. 3038; assay: as above; assay type: cell-based; conditions: 37° C., 18 hours, read-out: Minimum Inhibitory Concentrations
Procedure: as §1

[20] = tested on: Pseudomonas aeruginosa A3; assay: as above; assay type: cell-based; conditions: 37° C., 18 hours, read-out: Minimum Inhibitory Concentrations
Procedure: as §1

[21] = tested on: Shigella flexneri 4b JS 11811; assay: as above; assay type: cell-based; conditions: 4BJS11811, 37° C., 18 hours, read-out: Minimum Inhibitory Concentrations
Procedure: as §1

Shigella sonnei JS 11746 = assay: as above; assay type: cell-based; conditions: JS11746, 37° C., 18 hours, read-out: Minimum Inhibitory Concentrations
Procedure: as §1

[22] = tested on: Pseudomonas aeruginosa No. 12; assay: as above; assay type: cell-based; conditions: Pseudomonas aeruginosa, NO.12, 18 h, read-out: Minimum Inhibitory Concentrations
[23] = tested on: Pseudomonas aeruginosa TI-13; assay: as above; assay type: cell-based; conditions: read-out: Minimum Inhibitory Concentrations
[24] = tested on: Pseudomonas aeruginosa GN315; assay: as above; assay type: cell-based; conditions: read-out: Minimum Inhibitory Concentrations
[25] = tested on: Pseudomonas aeruginosa 99; assay: as above; assay type: cell-based; conditions: 37° C., 18 hours, read-out: Minimum Inhibitory Concentrations
[26] = tested on: kanamycin-resistant bacteria; conditions: prior art statement; cited from earlier work

Structure (SMILES) | MIC (Staphylococcus aureus) [µg/mL] | MIC [1] [µg/mL] | MIC [2] [µg/mL] | MIC (Sarcina lutea PCI 1001) [µg/mL] | MIC (Bacillus anthracis) [µg/mL] | MIC [3] [µg/mL] | MIC [4] [µg/mL] | MIC [5] [µg/mL] | MIC [6] [µg/mL] | MIC [7] [µg/mL] | MIC [8] [µg/mL] | MIC (Salmonella typhosa T-63) [µg/mL] | MIC (Escherichia coli K-12 R5) [µg/mL] | MIC [14] [µg/mL] | MIC [15] [µg/mL] | MIC [16] [µg/mL] | MIC [17] [µg/mL] | MIC [18] [µg/mL] | MIC [19] [µg/mL] | activity against kanamycin-resistant bacteria [26] | further results
CNC[C@@H]1CC[C@@H](N)[C@@H](O[C@H]2[C@H](O)[C@@H](O[C@H]3O[C@H](CO)[C@@H](O)[C@H](N)[C@H]3O)[C@H](NC(=O)C(O)CN)C[C@@H]2N)O1 (mixture of isomers) [DL-IS-MDKB, 1N-(DL-isoseryl)-6'N-methyl-3',4'-dideoxykanamycin B] | < 0.2 | 0.78 | < 0.2 | 6.25 | < 0.2 | < 0.2 | < 0.2 | 3.13 | 3.13 | 0.39 | 6.25 | 1.56 | 3.13 | 3.13 | 0.78 | 0.78 | 3.13 | 3.13 | 3.13 |  | MIC ([9]; ENTERITIDIS, 18 h): 3.13 µg/mL; MIC (Proteus vulgaris OX 19; Proteus vulgaris, OX19, 18 h): 1.56 µg/mL; MIC ([10]; Klebsiella pneumoniae, PCT602, 18 h): 1.56 µg/mL; MIC (Escherichia coli NIHJ; Escherichia coli, 18 h): 1.56 µg/mL; MIC (Escherichia coli K-12; Escherichia coli, K12, 18 h): 1.56 µg/mL; MIC ([11]; Escherichia coli, K12ML1629, 18 h): 1.56 µg/mL; MIC ([12]; Escherichia coli, K12ML1410, 18 h): 3.13 µg/mL; MIC [13]: 3.13 µg/mL; MIC (Escherichia coli W677; Escherichia coli, W677, 18 h): 1.56 µg/mL; MIC [20]: 3.13 µg/mL; MIC [21]: 3.13 µg/mL; MIC (Shigella sonnei JS 11746): 3.13 µg/mL; MIC [22]: 6.25 µg/mL; MIC ([23]; TI13, Pseudomonas aeruginosa TI-13, 37° C., 18 hours): 12.5 µg/mL; MIC ([24]; Pseudomonas aeruginosa GN315, 37° C., 18 hours): 12.5 µg/mL; MIC [25]: 25 µg/mL
NC[C@@H]1CC[C@@H](N)[C@@H](O[C@H]2[C@H](O)[C@@H](O[C@H]3O[C@H](CO)[C@@H](O)[C@H](N)[C@H]3O)[C@H](N)C[C@@H]2N)O1 [3',4'-dideoxykanamycin B, 3',4'-Dideoxykanamycin B] |  |  |  |  |  |  |  |  |  |  |  |  |  |  |  |  |  |  |  | active against a large number of kanamycin-resistant bacteria | 
CNC[C@@H]1CC[C@@H](N)[C@@H](O[C@H]2[C@H](O)[C@@H](O[C@H]3O[C@H](CO)[C@@H](O)[C@H](N)[C@H]3O)[C@H](N)C[C@@H]2N)O1 [6'N-methyl-3',4'-dideoxykanamycin B, 6'N-Methyl-3',4'-dideoxykanamycin B] |  |  |  |  |  |  |  |  |  |  |  |  |  |  |  |  |  |  |  | active against a large number of kanamycin-resistant bacteria | 
NCC[C@H](O)C(=O)N[C@@H]1C[C@H](N)[C@@H](O[C@H]2O[C@H](CN)[C@@H](O)[C@H](O)[C@H]2N)[C@H](O)[C@H]1O[C@H]1O[C@H](CO)[C@@H](O)[C@H](N)[C@H]1O [AHB-KMB, 1N-(L-4-amino-2-hydroxybutyryl)kanamycin B] |  |  |  |  |  |  |  |  |  |  |  |  |  |  |  |  |  |  |  | active against a large number of kanamycin-resistant bacteria | 
CNC[C@@H]1CC[C@@H](N)[C@@H](O[C@H]2[C@H](O)[C@@H](O[C@H]3O[C@H](CO)[C@@H](O)[C@H](N)[C@H]3O)[C@H](NC(=O)[C@@H](O)CCN)C[C@@H]2N)O1 [AHB-MDKB, 1N-(L-4-amino-2-hydroxybutyryl)-6'N-methyl-3',4'-dideoxykanamycin B] | < 0.2 | 0.78 (≈ 1.38 µM) | < 0.2 | 3.13 (≈ 5.52 µM) | < 0.2 | < 0.2 | < 0.2 | 3.13 (≈ 5.52 µM) | 3.13 (≈ 5.52 µM) | 0.2 (≈ 0.353 µM) | 3.13 (≈ 5.52 µM) | 3.13 (≈ 5.52 µM) | 1.56 (≈ 2.75 µM) | 0.78 (≈ 1.38 µM) | 0.78 (≈ 1.38 µM) | 0.78 (≈ 1.38 µM) | 3.13 (≈ 5.52 µM) | 0.78 (≈ 1.38 µM) | 3.13 (≈ 5.52 µM) |  | MIC ([9]; Salmonella enteritidis 1891, 37° C., 18 hours): 1.56 µg/mL (≈ 2.75 µM); MIC (Proteus vulgaris OX 19; OX19, Proteus vulgaris OX 19, 37° C., 18 hours): 1.56 µg/mL (≈ 2.75 µM); MIC ([10]; PCT602, Klebsiella pneumoniae PCT 602, 37° C., 18 hours): 0.78 µg/mL (≈ 1.38 µM); MIC (Escherichia coli NIHJ; Escherichia coli NIHJ, 37° C., 18 hours): 1.56 µg/mL (≈ 2.75 µM); MIC (Escherichia coli K-12; K12, Escherichia coli K-12, 37° C., 18 hours): 0.78 µg/mL (≈ 1.38 µM); MIC ([11]; K12ML1629, Escherichia coli K-12 ML 1629, 37° C., 18 hours): 1.56 µg/mL (≈ 2.75 µM); MIC ([12]; K12ML1410, Escherichia coli K-12 ML 1410, 37° C., 18 hours): 1.56 µg/mL (≈ 2.75 µM); MIC (Escherichia coli W677; Escherichia coli W677, 37° C., 18 hours): 0.78 µg/mL (≈ 1.38 µM); MIC [20]: 3.13 µg/mL (≈ 5.52 µM); MIC [21]: 3.13 µg/mL (≈ 5.52 µM); MIC (Shigella sonnei JS 11746): 6.25 µg/mL (≈ 11 µM); MIC [22]: 3.13 µg/mL (≈ 5.52 µM); MIC ([23]; Pseudomonas aeruginosa, TI13, 18 h): 6.25 µg/mL (≈ 11 µM); MIC ([24]; Pseudomonas aeruginosa, GN315, 18 h): 6.25 µg/mL (≈ 11 µM); MIC [25]: 25 µg/mL (≈ 44.1 µM)
